Assay results: patent US20100261719A1, “CHEMICAL COMPOUNDS” (priority 2007, published 2010)
pIC50: −log10 of the molar value.

target: Escherichia coli DNA gyrase A/B tetramer (Escherichia coli, UniProt P0AES4+P0AES6); assay: DNA gyrase supercoiling activity fluorescence polarisation assay; assay type: biochemical; conditions: not given
Experimental: In a black, 384-well polystyrene assay plate, 30 microliters/well of 5 nM Escherichia coli DNA gyrase A/B tetramer and 130 micrograms/ml of topologically relaxed plasmid containing the triplex-forming sequence […] in an assay buffer consisting of 35 mM Tris-HCl (pH 7.5), 24 mM KCl, 4 mM MgCl2, 2 mM dithiothreitol, 1.8 mM spermidine, 5% (v/v) glycerol, 200 nM bovine serum albumin, 0.8% dimethylsulfoxide, and 0.3 mM ATP may be incubated at ambient temperature for (typically 30 minutes) in the absence or presence of 5-10 different concentrations of test compound. The supercoiling reactions may be quenched by the addition of 10 microliters/well of 40 nM oligodeoxynucleotide probe in 3× triplex-forming buffer consisting of 150 mM NaCl, and 150 mM sodium acetate at pH 3.5. The oligodeoxynucleotide probe may be 5′-BODIPY-FL-labeled TTCTTCTTC. After 60 minutes, the fluorescence anisotropy of the BODIPY-FL may be measured in a Tecan Ultra plate reader, using 485 nm excitation and 535 nm emission filters equipped with polarizers. The IC50 may be determined by nonliner regression using two control reactions. The first contains no test compound but 0.8% DMSO (100% activity) while the second control reaction contains 5 uM Ciprofloxacin and 0.8% DMSO (0% activity).
When tested in an in-vitro assay based on the DNA gyrase supercoiling activity fluorescence polarisation assay described above, the E. coli DNA gyrase supercoiling IC50 assay inhibitory activity of the following Examples was measured at the indicated IC50.

Sequence of Escherichia coli DNA gyrase A/B tetramer (P0AES4 whole entry, one chain of several): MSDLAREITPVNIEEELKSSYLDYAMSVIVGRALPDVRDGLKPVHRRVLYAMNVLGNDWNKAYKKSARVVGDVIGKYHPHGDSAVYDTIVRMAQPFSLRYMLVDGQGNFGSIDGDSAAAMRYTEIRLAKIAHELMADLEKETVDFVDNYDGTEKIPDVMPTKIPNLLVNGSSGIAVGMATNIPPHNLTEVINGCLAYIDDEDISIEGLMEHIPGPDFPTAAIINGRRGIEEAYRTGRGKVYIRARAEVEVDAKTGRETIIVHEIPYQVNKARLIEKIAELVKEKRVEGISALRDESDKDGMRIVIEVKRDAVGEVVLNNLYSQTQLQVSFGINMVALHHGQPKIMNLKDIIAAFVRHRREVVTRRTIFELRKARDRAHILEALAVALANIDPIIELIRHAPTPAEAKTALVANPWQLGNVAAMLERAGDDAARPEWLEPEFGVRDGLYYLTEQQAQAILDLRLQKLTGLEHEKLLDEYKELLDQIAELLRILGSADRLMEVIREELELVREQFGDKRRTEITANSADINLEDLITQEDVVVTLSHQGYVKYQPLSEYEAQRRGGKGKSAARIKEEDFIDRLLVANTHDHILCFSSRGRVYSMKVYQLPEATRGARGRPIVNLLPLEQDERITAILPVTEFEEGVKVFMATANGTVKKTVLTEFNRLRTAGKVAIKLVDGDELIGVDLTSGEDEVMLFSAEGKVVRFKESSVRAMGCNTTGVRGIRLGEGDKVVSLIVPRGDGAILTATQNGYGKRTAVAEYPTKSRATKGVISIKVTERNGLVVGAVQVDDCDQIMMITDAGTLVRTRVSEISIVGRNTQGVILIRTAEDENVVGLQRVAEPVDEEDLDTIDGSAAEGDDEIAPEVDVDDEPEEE

`C[C@@H]1CN2c3c(F)cc(C#Cc4cnccn4)cc3CC3(C(=O)NC(=O)NC3=O)[C@H]2[C@H](C)O1` (relative stereo) [Example 43, (2R,4S,4aS)-rel-10-Fluoro-2,4-dimethyl-8-(pyrazin-2-ylethynyl)-1,2,4,4a-tetrahydro-2′H,6H-spiro[1,4-oxazino[4,3-a]quinoline-5,5′-pyrimidine]-2′,4′,6′(1′H,3′H)-trione] was tested. Which pIC50 did it give?
Its pIC50 is 5.83.

`C[C@@H]1CN2c3c(F)cc(C#Cc4cccnc4)cc3CC3(C(=O)NC(=O)NC3=O)[C@H]2[C@H](C)O1` (relative stereo) [Example 44, (2R,4S,4aS)-rel-10-Fluoro-2,4-dimethyl-8-(pyridin-3-ylethynyl)-1,2,4,4a-tetrahydro-2′H,6H-spiro[1,4-oxazino[4,3-a]quinoline-5,5′-pyrimidine]-2′,4′,6′(1′H,3′H)-trione] was tested. Which pIC50 did it give?
The pIC50 was 6.66.

With `Cc1nnc(C)n1/N=C/c1cc2c(c(F)c1F)N1C[C@@H](C)O[C@@H](C)[C@@H]1C1(C2)C(=O)NC(=O)NC1=O` (relative stereo) [Example 47, (2R,4S,4aS)-rel-8-{(E)-[(3,5-Dimethyl-4H-1,2,4-triazol-4-yl)imino]methyl}-9,10-difluoro-2,4-dimethyl-1,2,4,4a-tetrahydro-2′H,6H-spiro[1,4-oxazino[4,3-a]quinoline-5,5′-pyrimidine]-2′,4′,6′(1′H,3′H)-trione] as the compound, how does the pIC50 read?
The pIC50 was 5.44.

`CC(=O)N/N=C(\C)c1cc2c(c(F)c1F)N1C[C@@H](C)O[C@@H](C)[C@@H]1C1(C2)C(=O)NC(=O)NC1=O` (relative stereo) [Example 48, N′-{(1E)-1-[(2R,4S,4aS)-rel-9,10-Difluoro-2,4-dimethyl-2′,4′,6′-trioxo-1,1′,2,3′,4,4′,4a,6′-octahydro-2′H,6H-spiro[1,4-oxazino[4,3-a]quinoline-5,5′-pyrimidin]-8-yl]ethylidene}acetohydrazide] was tested. Which pIC50 did it give?
The pIC50 was 5.89.

With `C/C(=N\NC(=O)OC(C)(C)C)c1cc2c(c(F)c1F)N1C[C@@H](C)O[C@@H](C)[C@@H]1C1(C2)C(=O)NC(=O)NC1=O` (relative stereo) [Example 50, tert-Butyl (2E)-2-{1-[(2R,4S,4aS)-rel-9,10-difluoro-2,4-dimethyl-2′,4′,6′-trioxo-1,1′,2,3′,4,4′,4a,6′-octahydro-2′H,6H-spiro[1,4-oxazino[4,3-a]quinoline-5,5′-pyrimidin]-8-yl]ethylidene}hydrazinecarboxylate] as the compound, how does the pIC50 read?
Its pIC50 is 5.63.

`C/C(=N\NC(=O)Nc1ccccc1)c1cc2c(c(F)c1F)N1C[C@@H](C)O[C@@H](C)[C@@H]1C1(C2)C(=O)NC(=O)NC1=O` (relative stereo) [Example 51, (2E)-2-{1-[(2R,4S,4aS)-rel-9,10-Difluoro-2,4-dimethyl-2′,4′,6′-trioxo-1,1′,2,3′,4,4′,4a,6′-octahydro-2′H,6H-spiro[1,4-oxazino[4,3-a]quinoline-5,5′-pyrimidin]-8-yl]ethylidene}-N-phenylhydrazinecarboxamide] was tested. Which pIC50 did it give?
Its pIC50 is 5.26.

How did the pIC50 turn out when `C/C(=N\N1CC(=O)NC1=O)c1cc2c(c(F)c1F)N1C[C@@H](C)O[C@@H](C)[C@@H]1C1(C2)C(=O)NC(=O)NC1=O` (relative stereo) [Example 52, (2R,4S,4aS)-rel-8-[(1E)-N-(2,4-Dioxoimidazolidin-1-yl)ethanimidoyl]-9,10-difluoro-2,4-dimethyl-1,2,4,4a-tetrahydro-2′H,6H-spiro[1,4-oxazino[4,3-a]quinoline-5,5′-pyrimidine]-2′,4′,6′(1′H,3′H)-trione] was run?
The pIC50 was 4.89.

`C/C(=N\NC(=O)CC#N)c1cc2c(c(F)c1F)N1C[C@@H](C)O[C@@H](C)[C@@H]1C1(C2)C(=O)NC(=O)NC1=O` (relative stereo) [Example 53, 2-Cyano-N′-{(1E)-1-[(2R,4S,4aS)-rel-9,10-difluoro-2,4-dimethyl-2′,4′,6′-trioxo-1,1′,2,3′,4,4′,4a,6′-octahydro-2′H,6H-spiro[1,4-oxazino[4,3-a]quinoline-5,5′-pyrimidin]-8-yl]ethylidene}acetohydrazide] was tested. Which pIC50 did it give?
Its pIC50 is 5.79.

How did the pIC50 turn out when `C/C(=N\NC(N)=O)c1cc2c(c(F)c1F)N1C[C@@H](C)O[C@@H](C)[C@@H]1C1(C2)C(=O)NC(=O)NC1=O` (relative stereo) [Example 54, (2E)-2-{1-[(2R,4S,4aS)-rel-9,10-Difluoro-2,4-dimethyl-2′,4′,6′-trioxo-1,1′,2,3′,4,4′,4a,6′-octahydro-2′H,6H-spiro[1,4-oxazino[4,3-a]quinoline-5,5′-pyrimidin]-8-yl]ethylidene}hydrazinecarboxamide] was run?
The pIC50 was 5.64.

How did the pIC50 turn out when `COCC(=O)N/N=C(\C)c1cc2c(c(F)c1F)N1C[C@@H](C)O[C@@H](C)[C@@H]1C1(C2)C(=O)NC(=O)NC1=O` (relative stereo) [Example 55, N′-{(1E)-1-[(2R,4S,4aS)-rel-9,10-Difluoro-2,4-dimethyl-2′,4′,6′-trioxo-1,1′,2,3′,4,4′,4a,6′-octahydro-2′H,6H-spiro[1,4-oxazino[4,3-a]quinoline-5,5′-pyrimidin]-8-yl]ethylidene}-2-methoxyacetohydrazide] was run?
The pIC50 was 5.12.

`C/C(=N\NC(=O)C1CC1)c1cc2c(c(F)c1F)N1C[C@@H](C)O[C@@H](C)[C@@H]1C1(C2)C(=O)NC(=O)NC1=O` (relative stereo) [Example 56, N′-{(1E)-1-[(2R,4S,4aS)-rel-9,10-Difluoro-2,4-dimethyl-2′,4′,6′-trioxo-1,1′,2,3′,4,4′,4a,6′-octahydro-2′H,6H-spiro[1,4-oxazino[4,3-a]quinoline-5,5′-pyrimidin]-8-yl]ethylidene}cyclopropanecarbohydrazide] was tested. Which pIC50 did it give?
The pIC50 was 5.73.

`C/C(=N\Nc1ccccn1)c1cc2c(c(F)c1F)N1C[C@@H](C)O[C@@H](C)[C@@H]1C1(C2)C(=O)NC(=O)NC1=O` (relative stereo) [Example 57, (2R,4S,4aS)-rel-9,10-Difluoro-2,4-dimethyl-8-{(1E)-1-[2-(pyridin-2-yl)hydrazinylidene]ethyl}-1,2,4,4a-tetrahydro-2′H,6H-spiro[1,4-oxazino[4,3-a]quinoline-5,5′-pyrimidine]-2′,4′,6′(1′H,3′H)-trione] was tested. Which pIC50 did it give?
The pIC50 was 6.07.

How did the pIC50 turn out when `C/C(=N\Nc1ccccc1)c1cc2c(c(F)c1F)N1C[C@@H](C)O[C@@H](C)[C@@H]1C1(C2)C(=O)NC(=O)NC1=O` (relative stereo) [Example 58, (2R,4S,4aS)-rel-9,10-Difluoro-2,4-dimethyl-8-[(1E)-1-(2-phenylhydrazinylidene)ethyl]-1,2,4,4a-tetrahydro-2′H,6H-spiro[1,4-oxazino[4,3-a]quinoline-5,5′-pyrimidine]-2′,4′,6′(1′H,3′H)-trione] was run?
The pIC50 was 6.01.

`C/C(=N\Nc1ncccn1)c1cc2c(c(F)c1F)N1C[C@@H](C)O[C@@H](C)[C@@H]1C1(C2)C(=O)NC(=O)NC1=O` (relative stereo) [Example 59, (2R,4S,4aS)-rel-9,10-Difluoro-2,4-dimethyl-8-{(1E)-1-[2-(pyrimidin-2-yl)hydrazinylidene]ethyl}-1,2,4,4a-tetrahydro-2′H,6H-spiro[1,4-oxazino[4,3-a]quinoline-5,5′-pyrimidine]-2′,4′,6′(1′H,3′H)-trione] was tested. Which pIC50 did it give?
Its pIC50 is 5.79.

With `C/C(=N\Nc1cnccn1)c1cc2c(c(F)c1F)N1C[C@@H](C)O[C@@H](C)[C@@H]1C1(C2)C(=O)NC(=O)NC1=O` (relative stereo) [Example 60, (2R,4S,4aS)-rel-9,10-Difluoro-2,4-dimethyl-8-{(1E)-1-[2-(pyrazin-2-yl)hydrazinylidene]ethyl}-1,2,4,4a-tetrahydro-2′H,6H-spiro[1,4-oxazino[4,3-a]quinoline-5,5′-pyrimidine]-2′,4′,6′(1′H,3′H)-trione] as the compound, how does the pIC50 read?
The pIC50 was 6.59.

With `C[C@@H]1CN2c3c(cc(C(=O)NC4CCOC4=O)c(F)c3F)CC3(C(=O)NC(=O)NC3=O)[C@H]2[C@H](C)O1` (relative stereo) [Example 61, (2R,4S,4aS)-rel-9,10-Difluoro-2,4-dimethyl-2′,4′,6′-trioxo-N-(2-oxotetrahydrofuran-3-yl)-1,1′,2,3′,4,4′,4a,6′-octahydro-2′H,6H-spiro[1,4-oxazino[4,3-a]quinoline-5,5′-pyrimidine]-8-carboxamide] as the compound, how does the pIC50 read?
Its pIC50 is 5.32.

With `C[C@@H]1CN2c3c(cc(C(=O)NC4CCS(=O)(=O)C4)c(F)c3F)CC3(C(=O)NC(=O)NC3=O)[C@H]2[C@H](C)O1` (relative stereo) [Example 62, (2R,4S,4aS)-rel-N-(1,1-Dioxidotetrahydrothiophen-3-yl)-9,10-difluoro-2,4-dimethyl-2′,4′,6′-trioxo-1,1′,2,3′,4,4′,4a,6′-octahydro-2′H,6H-spiro[1,4-oxazino[4,3-a]quinoline-5,5′-pyrimidine]-8-carboxamide] as the compound, how does the pIC50 read?
Its pIC50 is 5.15.

same assay, conditions: 5 nM enzyme, 0.3 mM ATP, relaxed plasmid, fluorescence anisotropy readout; read-out: E. coli DNA gyrase supercoiling IC50

`C[C@@H]1CN2c3c(cc(C(=O)NC4CCN(C(=O)OC(C)(C)C)C4)c(F)c3F)CC3(C(=O)NC(=O)NC3=O)[C@H]2[C@H](C)O1` (relative stereo) [Example 63, tert-Butyl 3-({[2R,4S,4aS)-rel-9,10-difluoro-2,4-dimethyl-2′,4′,6′-trioxo-1,1′,2,3′,4,4′,4a,6′-octahydro-2′H,6H-spiro[1,4-oxazino[4,3-a]quinoline-5,5′-pyrimidin]-8-yl]carbonyl}amino)pyrrolidine-1-carboxylate] was tested. Which pIC50 did it give?
The pIC50 was 5.19.
